These results are taken from article PMC7501730, “Discovery of novel small molecule inhibitors of S100P with in vitro anti-metastatic effects on pancreatic cancer cells” (European Journal of Medicinal Chemistry, 2020).

For orientation: IC50 means the midpoint of a concentration-inhibition curve. In general, melting point refers to the temperature of the solid-liquid transition.

One data set has as its target T1, S100P-RAGE interaction (Homo sapiens, UniProt P25815).
T1 construct: His tag (N); made in house; host or cells: Escherichia coli BL21*
T1 sequence (P25815 1-95): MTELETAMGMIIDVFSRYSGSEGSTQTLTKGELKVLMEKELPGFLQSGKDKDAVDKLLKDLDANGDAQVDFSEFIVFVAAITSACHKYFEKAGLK
Description: ELISA of S100P-RAGE binding inhibition. The note with it: for ELISA inhibition: concentration with significant inhibition of S100P-RAGE binding, asterisks = significance by one-way ANOVA. On the procedure: The purchased computational screening hits were subjected to initial biological testing for inhibition of S100P-RAGE binding (ELISA), with cromolyn as positive control, using an adaptation of the reported ELISA for S100 family members.
Fig. 2 Effects of compounds 1–14 on S100P binding to RAGE. Human S100P (2 μM) coated wells were incubated with increasing concentrations of the compound tested, in triplicate, and exposed to human RAGE-Fc (100 nM) followed by goat anti-human secondary antibody to detect RAGE bound S100P. Data are compared to S100P/RAGE binding with no inhibitor (DMSO, 100%) and are presented as mean ± SEM; data is significant by one way ANOVA, where ∗ = p < 0.05, ∗∗ = p < 0.01 and ∗∗∗ = p < 0.001; n = 9 from 3 plates.
To generate human S100P recombinant protein, a pQE-30 ([…]) plasmid encoding S100P with N-terminal histidine tags (gifted by Dr Igor Barsukov, Liverpool University, UK), was transformed into BL21∗ competent Escherichia coli cells. Recombinant protein was purified using a HisTrap Nickel-nitrilotriacetic acid (Ni-NTA) agarose column (GE Healthcare, UK).
Purified recombinant S100P (2μM/well) in phosphate buffer (PBS; 137 mM NaCl, 2.7 mM KCl, 10 mM Na2HPO4, 1.8 mM KH2PO4, pH 7.4; supplemented with 1 mM CaCl2, 10 μM ZnCl2, and 0.5 mM MgCl2) was used for coating a 96 well plate (NunclonDelta, Fisher), and incubated overnight at 37 °C.
Following washing, S100P non-specific binding sites were blocked with 1% bovine serum albumin (BSA; Fisher, UK) in PBS for 2 h at 37 °C. Following three washes, S100P was incubated with increasing concentrations of compounds, in parallel to cromolyn and DMSO treated wells, all in triplicate. Then 30 nM recombinant human receptor for advanced glycation end products (rh/RAGE-Fc; R&D Systems) was added and incubated for 1 h at 37 °C. Controls included a negative control (S100P protein, no RAGE-Fc), a positive control (S100P protein plus RAGE), and vehicle control (0.001% DMSO in PBS) were included in each plate. After three washes in PBS, all wells were exposed to goat anti-human HRP conjugate (1:1000; Millipore) for 1 h at 37 °C in order to detect bound receptors. Subsequent to washes, wells were incubated for 20 min in the dark with 3,3′,5,5′-tetramethylbenzidene (TMB) substrate (Sigma, UK). Plates were read at 450 nm using a Multiskan Ascent spectrophotometer (Fisher Scientific, UK). All sample readings were normalized to the positive control (S100P plus RAGE-Fc). Statistical analysis was performed and graphs plotted using the GraphPad Prism software in the following way: One Way ANOVA was used to compare the effects of concentration of each compound to the effects of vehicle control (DMSO), and p values of <0.05 were considered statistically significant. A post hoc analysis was conducted using Dunnetts multiple comparisons test; results are indicated by ∗ = p < 0.05; ∗∗ = p < 0.01 and ∗∗∗ = p < 0.001.

[1] abbreviates: Table 2, ELISA, analog series of hit 4, read-out: Estimated IC50.
[2] abbreviates: Table 1, ELISA, human S100P 2 μM coated wells, human RAGE-Fc, read-out: Estimated IC50.

Like-named read-outs stand apart in the source and are kept apart here.

For the molecule `O=C1C2C3c4ccccc4C(c4ccccc43)C2C(=O)N1c1cccc(Cl)c1` (stereo not drawn) [Compound 4p, 13-(3-chlorophenyl)-9,10-dihydro-9,10-[3,4]epipyrroloanthracene-12,14-dione], at S100P-RAGE interaction (Table 2), the ELISA inhibition entry is listed as “– (no significant inhibition below 1 μM)”.
The same measure, in the same setting: the same measure for `CCOC(=O)c1cccc(N2C(=O)C3C4c5ccccc5C(c5ccccc54)C3C2=O)c1` (stereo not drawn) [Compound 4n, Ethyl 3-(12,14-dioxo-9,10-dihydro-9,10-[3,4]epipyrroloanthracen-13-yl)benzoate]: “– (no significant inhibition below 1 μM)”.
Turning to `COc1ccc(/C=C2/C(=O)NC(=O)N(c3ccc(Cl)c(Cl)c3)C2=O)cc1C(=O)O` [Compound 3], the IC50 at S100P-RAGE interaction is 0.514 nM.
In the case of `O=C1C2C3c4ccccc4C([N+](=O)[O-])(c4ccccc43)C2C(=O)N1c1cccc(Cl)c1` (stereo not drawn) [Compound 4c, 13-(3-chlorophenyl)-9-nitro-9,10-dihydro-9,10-[3,4]epipyrroloanthracene-12,14-dione], the ELISA inhibition entry at S100P-RAGE interaction (Table 2) was “– (no significant inhibition below 1 μM)”.
Regarding `O=C1C2C3c4ccccc4C(c4ccccc43)C2C(=O)N1c1cccc(F)c1` (stereo not drawn) [Compound 4o, 13-(3-fluorophenyl)-9,10-dihydro-9,10-[3,4]epipyrroloanthracene-12,14-dione], the melting point was 228 to 230 °C. The “concentration with significant inhibition of S100P-RAGE binding” value on S100P-RAGE interaction (ELISA) is no more than 100 nM. Also, at S100P-RAGE interaction (setting [1]), the IC50 is 1.3 nM. On S100P-RAGE interaction (Table 2), this molecule gave an ELISA inhibition of 10 nM∗.
As for `Cc1ccc(-c2ccc(=O)n(CC(=O)Nc3ccc(-n4cnnn4)cc3)n2)cc1` [Compound 6], the IC50 on S100P-RAGE interaction (setting [2]) is 0.555 nM.
For `CCOC(=O)c1ccc(N2C(=O)C3C4c5ccccc5C(c5ccccc54)C3C2=O)cc1` (stereo not drawn) [Compound 4t, Ethyl 4-(12,14-dioxo-9,10-dihydro-9,10-[3,4]epipyrroloanthracen-13-yl)benzoate], the ELISA inhibition result on S100P-RAGE interaction (Table 2) is “– (no significant inhibition below 1 μM)”.
Consider `COc1ccc(-c2noc(CCCC(=O)O)n2)cc1` [Compound 12], for which the IC50 at S100P-RAGE interaction (setting [2]) is 264 nM.
For `O=C1C2C3c4ccccc4C([N+](=O)[O-])(c4ccccc43)C2C(=O)N1c1ccc(Cl)cc1` (stereo not drawn) [Compound 4i, 13-(4-chlorophenyl)-9-nitro-9,10-dihydro-9,10-[3,4]epipyrroloanthracene-12,14-dione], the ELISA inhibition entry on S100P-RAGE interaction (Table 2) was “– (no significant inhibition below 1 μM)”.
With `O=C1C2C3c4ccccc4C(c4ccccc43)C2C(=O)N1c1ccccc1` (stereo not drawn) [Compound 4r, 13-Phenyl-9,10-dihydro-9,10-[3,4]epipyrroloanthracene-12,14-dione], the melting point lay within 211 to 215 °C. Moreover, at S100P-RAGE interaction (ELISA), the “concentration with significant inhibition of S100P-RAGE binding” value is on record as no more than 100 nM. The IC50 on S100P-RAGE interaction (setting [1]) was 0.796 nM. This molecule had an ELISA inhibition on S100P-RAGE interaction (Table 2) of 10 nM∗.
For `O=C1C2C3c4ccccc4C(c4ccccc43)C2C(=O)N1c1ccc(I)cc1` (stereo not drawn) [Compound 4x, 13-(4-iodophenyl)-9,10-dihydro-9,10-[3,4]epipyrroloanthracene-12,14-dione], the ELISA inhibition result at S100P-RAGE interaction (Table 2) was “– (no significant inhibition below 1 μM)”.
The same measure, in the same setting: the entry for `O=C(O)c1ccc(N2C(=O)C3C4c5ccccc5C(c5ccccc54)C3C2=O)cc1` (stereo not drawn) [Compound 4s, 4-(12,14-Dioxo-9,10-dihydro-9,10-[3,4]epipyrroloanthracen-13-yl)benzoic acid] is “– (no significant inhibition below 1 μM)”.
For `O=C(O)CNC(=O)CCCn1c(=O)[nH]c2ccccc2c1=O` [Compound 10], at S100P-RAGE interaction (setting [2]), the IC50 is 42.6 nM.
Take `CCCN1CCc2c(sc3c2c(NCCc2ccccc2)nc2nnnn23)C1` [Compound 14]: the IC50 on S100P-RAGE interaction (setting [2]) is 77 nM.
Same read-out and setting: the figure for `Nc1nnn(CC(=O)N/N=C/c2cccs2)n1` [Compound 9] is 7.7 nM.
Regarding `CC(C)(C)c1ccc(N2C(=O)C3C4c5ccccc5C(c5ccccc54)C3C2=O)cc1` (stereo not drawn) [Compound 4y, 13-(4-(tert-butyl)phenyl)-9,10-dihydro-9,10-[3,4]epipyrroloanthracene-12,14-dione], the ELISA inhibition result on S100P-RAGE interaction (Table 2) was “- (no significant inhibition below 1 μM)”.
For `O=C(O)CCNC(=O)Cn1nnc2ccccc2c1=O` [Compound 11], the IC50 at S100P-RAGE interaction (setting [2]) was 6.89 nM.
`O=C1C2C3c4ccccc4C(c4ccccc43)C2C(=O)N1c1ccc([N+](=O)[O-])cc1` (stereo not drawn) [Compound 4w, 13-(4-nitrophenyl)-9,10-dihydro-9,10-[3,4]epipyrroloanthracene-12,14-dione]: the ELISA inhibition entry at S100P-RAGE interaction (Table 2) is “– (no significant inhibition below 1 μM)”.
With `O=C1C2C3c4ccccc4C(c4ccccc43)C2C(=O)N1c1cccc([N+](=O)[O-])c1` (stereo not drawn) [Compound 4q, 13-(3-nitrophenyl)-9,10-dihydro-9,10-[3,4]epipyrroloanthracene-12,14-dione], on S100P-RAGE interaction (Table 2), the ELISA inhibition result is on record as “– (no significant inhibition below 1 μM)”.
For the molecule `O=C(Cc1cc(O)n[nH]1)N/N=C/c1c(Cl)cccc1Cl` [Compound 7], the IC50 on S100P-RAGE interaction (setting [2]) is 19 nM.
`O=C(O)c1cccc(N2C(=O)C3C4c5ccccc5C(c5ccccc54)C3C2=O)c1` (stereo not drawn) [Compound 4m, 3-(12,14-Dioxo-9,10-dihydro-9,10-[3,4]epipyrroloanthracen-13-yl)benzoic acid]: the ELISA inhibition entry at S100P-RAGE interaction (Table 2) was “– (no significant inhibition below 1 μM)”.
Turning to `O=C1C2C3c4ccccc4C([N+](=O)[O-])(c4ccccc43)C2C(=O)N1c1cccc([N+](=O)[O-])c1` (stereo not drawn) [Compound 4d, 9-Nitro-13-(3-nitrophenyl)-9,10-dihydro-9,10-[3,4]epipyrroloanthracene-12,14-dione], the ELISA inhibition entry at S100P-RAGE interaction (Table 2) is “– (no significant inhibition below 1 μM)”.
On the same count and under the same terms, the entry for `CC(C)(C)c1ccc(N2C(=O)C3C4c5ccccc5C([N+](=O)[O-])(c5ccccc54)C3C2=O)cc1` (stereo not drawn) [Compound 4l, 13-(4-(tert-butyl)phenyl)-9-nitro-9,10-dihydro-9,10-[3,4]epipyrroloanthracene-12,14-dione] is “- (no significant inhibition below 1 μM)”; for `O=C1C2C3c4ccccc4C([N+](=O)[O-])(c4ccccc43)C2C(=O)N1c1ccc(I)cc1` (stereo not drawn) [Compound 4k, 13-(4-iodophenyl)-9-nitro-9,10-dihydro-9,10-[3,4]epipyrroloanthracene-12,14-dione] it is “– (no significant inhibition below 1 μM)”.
Regarding `O=C1C2C3c4ccccc4C([N+](=O)[O-])(c4ccccc43)C2C(=O)N1c1ccccc1` (stereo not drawn) [Compound 4e, 9-Nitro-13-phenyl-9,10-dihydro-9,10-[3,4]epipyrroloanthracene-12,14-dione], the ELISA inhibition entry on S100P-RAGE interaction (Table 2) was “– (no significant inhibition below 1 μM)”.
On the same count and under the same terms, the same measure for `O=C1C2C3c4ccccc4C(c4ccccc43)C2C(=O)N1c1ccc(Cl)cc1` (stereo not drawn) [Compound 4v, 13-(4-chlorophenyl)-9,10-dihydro-9,10-[3,4]epipyrroloanthracene-12,14-dione]: “– (no significant inhibition below 1 μM)”.
As for `Cc1nc2sc3c(c2c2nc(C(=O)NCCOCCO)nn12)C[C@@H](C)CC3` [Compound 13], the IC50 at S100P-RAGE interaction (setting [2]) is 126 nM.
Same read-out and setting: the figure for `N#CCCn1cc(C(=O)Nc2ccc(C(=O)O)cc2)c(-c2ccccc2)n1` [Compound 5] is 0.6 nM.
Consider `O=C1C2C3c4ccccc4C([N+](=O)[O-])(c4ccccc43)C2C(=O)N1c1ccc(F)cc1` (stereo not drawn) [Compound 4h, 13-(4-fluorophenyl)-9-nitro-9,10-dihydro-9,10-[3,4]epipyrroloanthracene-12,14-dione], for which the ELISA inhibition result on S100P-RAGE interaction (Table 2) is “– (no significant inhibition below 1 μM)”.
Still for that read-out and setting: the entry for `O=C1C2C3c4ccccc4C([N+](=O)[O-])(c4ccccc43)C2C(=O)N1c1ccc([N+](=O)[O-])cc1` (stereo not drawn) [Compound 4j, 9-Nitro-13-(4-nitrophenyl)-9,10-dihydro-9,10-[3,4]epipyrroloanthracene-12,14-dione] is “– (no significant inhibition below 1 μM)”.
